Assay results from US11780830B2, “Triazolone derivatives or salts thereof and pharmaceutical compositions comprising the same” (YUHAN CORPORATION, priority 2018, dated 2023).
Where a name gives a salt, the structure may show the parent alone.

Legend:
Type in all cases: biochemical
recombinant human VAP-1 = biological target: T1, recombinant human VAP-1 (Homo sapiens, UniProt Q16853); experiment: Activity on recombinant human VAP-1, HRP-coupled Amplex Red hydrogen peroxide assay; settings: substrate 1 mM benzylamine; compound incubated with enzyme at 37° C. for 30 minutes; pH 7.4; read-out: Inhibitory Activity (IC50, nM) human VAP-1
T1 construct: purchased R&D systems
T1 sequence (Q16853 1-763): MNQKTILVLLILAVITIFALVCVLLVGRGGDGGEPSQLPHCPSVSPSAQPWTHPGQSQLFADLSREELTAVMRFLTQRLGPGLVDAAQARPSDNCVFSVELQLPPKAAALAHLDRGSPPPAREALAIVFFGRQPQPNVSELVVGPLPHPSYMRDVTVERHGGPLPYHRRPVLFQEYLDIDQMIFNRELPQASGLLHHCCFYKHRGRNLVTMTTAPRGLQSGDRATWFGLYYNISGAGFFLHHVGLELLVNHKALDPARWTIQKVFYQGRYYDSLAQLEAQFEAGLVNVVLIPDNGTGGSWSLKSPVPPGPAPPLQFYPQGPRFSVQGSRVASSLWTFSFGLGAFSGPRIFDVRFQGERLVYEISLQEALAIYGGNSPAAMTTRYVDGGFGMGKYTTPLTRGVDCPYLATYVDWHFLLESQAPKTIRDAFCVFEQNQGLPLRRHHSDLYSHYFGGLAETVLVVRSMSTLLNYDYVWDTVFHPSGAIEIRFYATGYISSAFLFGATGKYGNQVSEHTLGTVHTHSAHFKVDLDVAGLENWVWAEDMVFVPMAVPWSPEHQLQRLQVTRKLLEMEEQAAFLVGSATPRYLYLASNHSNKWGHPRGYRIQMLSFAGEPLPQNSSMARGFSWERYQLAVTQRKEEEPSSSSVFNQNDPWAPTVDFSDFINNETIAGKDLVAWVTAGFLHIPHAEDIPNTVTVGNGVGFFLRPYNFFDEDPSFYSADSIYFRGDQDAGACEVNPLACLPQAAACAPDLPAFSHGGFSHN
Summary of the method: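 Compounds were preincubated with purified enzyme in 50 mM sodium phosphate pH 7.4 at 37 °C for 30 min, then 200 uM Amplex Red, 1 mM benzylamine and 1 U/mL HRP were added. Resorufin fluorescence (ex 544/em 590 nm) was followed over 1-2 h; IC50 came from 4-parameter fits of signal-rate inhibition.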

[1] = biological target: T2, recombinant human MAO-A (monoamine oxidase-A) (Homo sapiens, UniProt P21397); experiment: Activity on recombinant human MAO-A, method similar to the VAP-1 assay; settings: substrate 0.5 mM tyramine; read-out: Inhibitory Activity (IC50, nM) MAO-A
T2 construct: purchased Sigma-Aldrich
T2 sequence (P21397 1-527): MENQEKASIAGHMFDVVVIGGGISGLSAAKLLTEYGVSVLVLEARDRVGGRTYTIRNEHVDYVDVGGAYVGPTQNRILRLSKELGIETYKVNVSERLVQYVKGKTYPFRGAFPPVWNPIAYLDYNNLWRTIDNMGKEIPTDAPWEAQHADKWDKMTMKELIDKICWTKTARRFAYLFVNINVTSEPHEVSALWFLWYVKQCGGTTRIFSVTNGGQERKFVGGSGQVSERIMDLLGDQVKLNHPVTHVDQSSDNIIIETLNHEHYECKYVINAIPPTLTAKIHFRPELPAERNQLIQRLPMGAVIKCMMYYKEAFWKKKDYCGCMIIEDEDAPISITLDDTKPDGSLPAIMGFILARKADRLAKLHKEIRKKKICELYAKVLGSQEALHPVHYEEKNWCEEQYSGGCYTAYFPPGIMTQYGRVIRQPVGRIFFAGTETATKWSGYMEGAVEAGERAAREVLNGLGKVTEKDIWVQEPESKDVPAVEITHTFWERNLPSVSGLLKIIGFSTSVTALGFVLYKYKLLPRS
Summary of the method: (§1)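 8-point, 1:3 dose-response, four-parameter logistic IC50 from reduction in fluorescence rate versus DMSO control. HRP/Amplex Red detection of H2O2 (ex 544, em 590 nm) after 30 min, 37 °C compound–enzyme preincubation in pH 7.4 phosphate buffer. MAO-A substrate: 0.5 mM tyramine; MAO-B: 1 mM benzylamine.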

[2] = biological target: T3, recombinant human MAO-B (monoamine oxidase-B) (Homo sapiens, UniProt P27338); experiment: Activity on recombinant human MAO-B, method similar to the VAP-1 assay; settings: substrate 1 mM benzylamine; read-out: Inhibitory Activity (IC50, nM) MAO-B
T3 construct: purchased Sigma-Aldrich
T3 sequence (P27338 1-520): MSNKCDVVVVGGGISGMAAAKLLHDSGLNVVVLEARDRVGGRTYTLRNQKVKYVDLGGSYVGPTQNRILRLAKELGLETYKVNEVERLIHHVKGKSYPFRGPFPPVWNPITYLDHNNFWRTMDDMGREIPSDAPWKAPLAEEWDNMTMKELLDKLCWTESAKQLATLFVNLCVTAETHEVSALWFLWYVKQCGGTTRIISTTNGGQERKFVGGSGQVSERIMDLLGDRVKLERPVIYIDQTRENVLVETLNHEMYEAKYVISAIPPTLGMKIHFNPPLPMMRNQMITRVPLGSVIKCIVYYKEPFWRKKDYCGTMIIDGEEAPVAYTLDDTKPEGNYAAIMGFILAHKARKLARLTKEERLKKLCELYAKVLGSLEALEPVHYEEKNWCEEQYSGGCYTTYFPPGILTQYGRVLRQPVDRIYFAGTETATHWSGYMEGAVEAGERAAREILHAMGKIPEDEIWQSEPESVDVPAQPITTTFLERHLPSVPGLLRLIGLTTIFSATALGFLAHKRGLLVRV
Summary of the method: as §1

[3] = biological target: T4, recombinant human DAO (diamine oxidase) (Homo sapiens, UniProt P19801); experiment: Activity on recombinant human DAO, method similar to the VAP-1 assay; settings: substrate 1 mM putrescine; read-out: Inhibitory Activity (IC50, nM) DAO
T4 construct: purchased R&D systems
T4 sequence (P19801 20-751): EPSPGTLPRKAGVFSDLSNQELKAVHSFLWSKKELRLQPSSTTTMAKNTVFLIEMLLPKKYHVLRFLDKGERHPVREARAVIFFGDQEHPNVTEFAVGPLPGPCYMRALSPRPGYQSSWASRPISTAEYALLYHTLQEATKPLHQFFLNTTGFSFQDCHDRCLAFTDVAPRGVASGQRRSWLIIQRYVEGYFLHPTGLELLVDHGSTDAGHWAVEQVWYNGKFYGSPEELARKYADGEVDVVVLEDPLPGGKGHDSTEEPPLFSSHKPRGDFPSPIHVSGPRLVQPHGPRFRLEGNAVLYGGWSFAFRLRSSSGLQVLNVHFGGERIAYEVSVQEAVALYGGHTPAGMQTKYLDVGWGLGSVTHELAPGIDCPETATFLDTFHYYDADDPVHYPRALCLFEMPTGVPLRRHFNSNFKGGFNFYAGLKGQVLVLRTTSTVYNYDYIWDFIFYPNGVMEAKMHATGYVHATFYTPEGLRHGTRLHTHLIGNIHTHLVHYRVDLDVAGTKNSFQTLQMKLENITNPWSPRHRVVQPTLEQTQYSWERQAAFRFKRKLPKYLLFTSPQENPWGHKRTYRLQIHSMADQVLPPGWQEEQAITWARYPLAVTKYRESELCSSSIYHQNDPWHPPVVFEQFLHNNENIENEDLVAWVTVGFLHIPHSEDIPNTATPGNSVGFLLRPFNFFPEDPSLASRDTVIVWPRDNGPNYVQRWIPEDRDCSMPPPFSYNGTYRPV
Summary of the method: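 Inhibition of recombinant human diamine oxidase (DAO, R&D systems) was assessed by the same approach as the VAP-1 assay, using 1 mM putrescine as substrate. Hydrogen peroxide formed was detected through an HRP-coupled Amplex Red reaction yielding fluorescent resorufin, read at 544 nm excitation and 590 nm emission. IC50 values came from four-parameter logistic fitting in GraphPad Prism.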

| Compound | IC50 (recombinant human VAP-1) | IC50 [1] | IC50 [2] | IC50 [3] |
| --- | --- | --- | --- | --- |
| NC/C(=C\F)Cn1ncn(Cc2ccc(-c3ccc4c(c3)OCC(=O)N4)s2)c1=O [Example 84, 7-[5-(1-[(2E)-2-(aminomethyl)-3-fluoroprop-2-en-1-yl]-5-oxo-1,5-dihydro-4H-1,2,4-triazol-4-ylmethyl)thiophen-2-yl]-2H-1,4-benzoxazin-3(4H)-one hydrochloride] | 0.2 nM | 63000 nM | > 10000 nM | 1300 nM |
| NC/C(=C\F)Cn1ncn(Cc2ccc(-c3ccc4c(c3)SCC(=O)N4)s2)c1=O [Example 85, 7-[5-[[1-[(E)-2-(aminomethyl)-3-fluoro-allyl]-5-oxo-1,2,4-triazol-4-yl]methyl]-2-thienyl]-4H-1,4-benzothiazin-3-one hydrochloride] | 0.3 nM | > 100000 nM | 1700 nM | 320 nM |
| CN1C(=O)COc2cc(-c3ccc(Cn4cnn(C/C(=C/F)CN)c4=O)s3)ccc21 [Example 86, 7-[5-[[1-[(E)-2-(aminomethyl)-3-fluoro-allyl]-5-oxo-1,2,4-triazol-4-yl]methyl]-2-thienyl]-4-methyl-1,4-benzoxazin-3-one hydrochloride] | 0.2 nM | > 100000 nM | 2500 nM | 380 nM |
| CC1(C)Oc2cc(-c3ccc(Cn4cnn(C/C(=C/F)CN)c4=O)s3)ccc2NC1=O [Example 87, 7-[5-[[1-[(E)-2-(aminomethyl)-3-fluoro-allyl]-5-oxo-1,2,4-triazol-4-yl]methyl]-2-thienyl]-2,2-dimethyl-4H-1,4-benzoxazin-3-one] | 0.4 nM | > 100000 nM | 2700 nM | 760 nM |
| Cc1c(-c2ccc(Cn3cnn(C/C(=C/F)CN)c3=O)s2)ccc2c1NC(=O)CC2 [Example 88, 7-[5-[[1-[(E)-2-(aminomethyl)-3-fluoro-allyl]-5-oxo-1,2,4-triazol-4-yl]methyl]-2-thienyl]-8-methyl-3,4-dihydro-1H-quinolin-2-one] | 0.3 nM | > 100000 nM | 2400 nM | 897 nM |
| NC/C(=C\F)Cn1ncn(Cc2ccc(-c3ccc4c(c3)NC(=O)CO4)s2)c1=O [Example 90, 6-[5-(1-[(2E)-2-(aminomethyl)-3-fluoroprop-2-en-1-yl]-5-oxo-1,5-dihydro-4H-1,2,4-triazol-4-ylmethyl)thiophen-2-yl]-2H-1,4-benzoxazin-3(4H)-one hydrochloride] | 0.4 nM | 24000 nM | 660 nM | 230 nM |
| Cc1cc(-c2ccc(Cn3cnn(C/C(=C/F)CN)c3=O)s2)cc2c1OCC(=O)N2 [Example 91, 6-[5-(1-[(2E)-2-(aminomethyl)-3-fluoroprop-2-en-1-yl]-5-oxo-1,5-dihydro-4H-1,2,4-triazol-4-ylmethyl)thiophen-2-yl]-8-methyl-2H-1,4-benzoxazin-3(4H)-one hydrochloride] | 0.9 nM | > 10000 nM | 3200 nM | 340 nM |
| Cc1c(-c2ccc(Cn3cnn(C/C(=C/F)CN)c3=O)s2)ccc2c1NC(=O)CO2 [Example 92, 6-[5-[[1-[(E)-2-(aminomethyl)-3-fluoro-allyl]-5-oxo-1,2,4-triazol-4-yl]methyl]-2-thienyl]-5-methyl-4H-1,4-benzoxazin-3-one hydrochloride] | 0.2 nM | 29000 nM | 600 nM | 350 nM |
| NC/C(=C\F)Cn1ncn(Cc2ccc(-c3cc4c(cc3F)OCC(=O)N4)s2)c1=O [Example 93, 6-[5-(1-[(2E)-2-(aminomethyl)-3-fluoroprop-2-en-1-yl]-5-oxo-1,5-dihydro-4H-1,2,4-triazol-4-ylmethyl)thiophen-2-yl]-7-fluoro-2H-1,4-benzoxazin-3(4H)-one hydrochloride] | 0.4 nM | 54000 nM | 1100 nM | 230 nM |
| NC/C(=C\F)Cn1ncn(Cc2ccc(-c3cc(F)c4c(c3)NC(=O)CO4)s2)c1=O [Example 94, 6-[5-[[1-[(E)-2-(aminomethyl)-3-fluoro-allyl]-5-oxo-1,2,4-triazol-4-yl]methyl]-2-thienyl]-8-fluoro-4H-1,4-benzoxazin-3-one hydrochloride] | 0.3 nM | 11000 nM | 1700 nM | 160 nM |
| NC/C(=C\F)Cn1ncn(Cc2ccc(-c3ccc4c(c3Cl)NC(=O)CO4)s2)c1=O [Example 95, 6-[5-[[1-[(E)-2-(aminomethyl)-3-fluoro-allyl]-5-oxo-1,2,4-triazol-4-yl]methyl]-2-thienyl]-5-chloro-4H-1,4-benzoxazin-3-one hydrochloride] | 0.25 nM | 25000 nM | 370 nM | 240 nM |
| CN1C(=O)COc2ccc(-c3ccc(Cn4cnn(C/C(=C/F)CN)c4=O)s3)cc21 [Example 96, 6-[5-(1-[(2E)-2-(aminomethyl)-3-fluoroprop-2-en-1-yl]-5-oxo-1,5-dihydro-4H-1,2,4-triazol-4-ylmethyl)thiophen-2-yl]-4-methyl-2H-1,4-benzoxazin-3(4H)-one hydrochloride] | 0.8 nM | 87000 nM | 120 nM | 310 nM |
